Consider four compounds from patent publication US10945932B2, “Prebiotic oral care compositions containing carboxylic acids” (COLGATE-PALMOLIVE COMPANY, priority 2013, dated 2021).

What all share (format): cell-based
The subject of assay [1] is beneficial oral bacteria and pathogenic oral bacteria. Description: Metabolic activity, prebiotic effect over the whole panel. As to conditions: for prebiotic effect (metabolic activity): threshold value of 2. How it is done: (§1) The extent of metabolic activity of the tested bacteria in the presence of the above-mentioned acids after 24 hours and 48 hours was investigated through a high throughput phenotype microarray system (PM) for microbial cells (Biolog Inc.). Each PM can contain up to 95 different biochemical compounds (e.g. organic acids) that may act as substrates for bacteria as well as one negative control, not containing the substrates. Microarray plates were used in which the different wells of each plate were pre-loaded (by the manufacturer, Biolog Inc.) with different organic acids to be tested. Each bacterial species was tested using a separate microarray plate. Thus, a single bacterial species was tested with a variety of organic acids on each particular plate. The microarrays are based on redox technology, using cell respiration as a universal reporter. […] The observation of this color change indicates which of the substrates improve the metabolic activity and health of the cells.
(§2) Each bacterial species was collected from blood agar plates (incubated for 48 hours anaerobically at 37° C.) and transferred to an IF-0 Base inoculation fluid (Biolog Inc.), which is a nutritionally poor medium. […] A 1:5 dilution of this suspension was prepared by mixing 3 mL of the 42% transmittance cell suspension with 15 mL of an inoculation fluid (which inoculation fluid was formed by mixing 11.6 mL sterile water, 62.5 mL IF-0 base inoculation fluid and 0.9 mL of the tetrazolium dye “Biolog Redox Dye mix D”), resulting in a final cell density which was equal to 85% transmittance using a BioRad SmartSpec 3000 Photometer. For each of the acids tested, the microarray plate (obtained from the supplier (Biolog Inc.) with acid already present in the relevant wells in powder form) was directly inoculated with 100 μL/well of this 85% transmittance cell suspension.
(§3) All plates were incubated in an anaerobic atmosphere at 37° C. Color changes were measured spectrophotometrically at 492 nm (Thermo Scientific Multiskan Ascent) at 24 hrs and 48 hrs using the same plate at both time points.
(§4) The controls were also carried out three times, as above.

Assay [2] concerns Actinomyces naeslundii. In words: Metabolic activity, Biolog phenotype microarray. As to conditions: A naeslundii. How it is done: as §1, §2, §3, §4
The subject of assay [3] is Actinomyces viscosus. In words: Metabolic activity, Biolog phenotype microarray. As to conditions: A viscosus. How it is done:
as §1, §2, §3, §4

The subject of assay [4] is Aggregatibacter actinomycetemcomitans. Description: Metabolic activity, Biolog phenotype microarray. As to conditions: A actinomycetemcomitans. How it is done: as §1, §2, §3, §4
The test system of assay [5] is Capnocytophaga sputigena. Description: Metabolic activity, Biolog phenotype microarray. As to conditions: C sputigena. How it is done: as §1, §2, §3, §4
Assay [6] relates to Fusobacterium nucleatum. Description: Metabolic activity, Biolog phenotype microarray. Particulars: F nucleatum. How it is done:
as §1, §2, §3, §4

Assay [7] relates to Porphyromonas gingivalis. Description: Metabolic activity, Biolog phenotype microarray. Particulars: P gingivalis. How it is done: as §1, §2, §3, §4
Assay [8] concerns Prevotella intermedia. In words: Metabolic activity, Biolog phenotype microarray. As to conditions: P intermedia. How it is done:
as §1, §2, §3, §4

The test system of assay [9] is Streptococcus gordonii. In words: Metabolic activity, Biolog phenotype microarray. Particulars: S gordonii. How it is done: as §1, §2, §3, §4
Assay [10] has as its system Streptococcus mitis. In words: Metabolic activity, Biolog phenotype microarray. As to conditions: S mitis. How it is done: as §1, §2, §3, §4
Assay [11] relates to Streptococcus mutans. Description: Metabolic activity, Biolog phenotype microarray. Particulars: S mutans. How it is done: as §1, §2, §3, §4
Assay [12] deals with Streptococcus salivarius. In words: Metabolic activity, Biolog phenotype microarray. As to conditions: S salivarius. How it is done:
as §1, §2, §3, §4

In assay [13] the test system is Streptococcus sanguinis. Description: Metabolic activity, Biolog phenotype microarray. Particulars: S sanguinis. How it is done: as §1, §2, §3, §4
The test system of assay [14] is Streptococcus sobrinus. Description: Metabolic activity, Biolog phenotype microarray. As to conditions: S sobrinus. How it is done:
as §1, §2, §3, §4

The subject of assay [15] is Tannerella forsythia. In words: Metabolic activity, Biolog phenotype microarray. As to conditions: T forsythia. How it is done:
as §1, §2, §3, §4

The test system of assay [16] is Veillonella parvula. Description: Metabolic activity, Biolog phenotype microarray. Particulars: V parvula. How it is done:
as §1, §2, §3, §4

Molecules are shown by their SMILES.

Take `CC(=O)O` [Acetic acid, acetic acid]: the “prebiotic effect (metabolic activity)” value in assay [1] (48 hrs) is “exhibited prebiotic effects”.

As for `O=C(O)CC(O)(CC(=O)O)C(=O)O` [Citric acid, citric acid], the “metabolic activity, OD at 492 nm divided by OD of control (control = 1)” value (“metabolic activity, OD at 492 nm divided” for short) in [2] (24 hrs) was 0.8551; in assay [2] (48 hrs), 0.7965; in [3] (24 hrs) it was 0.9333; in assay [3] (48 hrs), 0.9052; in assay [4] (24 hrs) it was 1.3098; in assay [4] (48 hrs) it was 1.4736. Moreover, the “metabolic activity, OD at 492 nm divided” value in assay [5] (24 hrs) was 0.5992; in assay [5] (48 hrs), 0.8818; in assay [6] (24 hrs), 0.7626; in assay [6] (48 hrs) it was 0.6603; in assay [7] (24 hrs), 0.8443; in assay [7] (48 hrs) it was 0.8692. The “metabolic activity, OD at 492 nm divided” value in assay [8] (24 hrs) is 0.9626; in [8] (48 hrs) it was 0.8872; in assay [9] (24 hrs), 0.9010; in [9] (48 hrs), 0.7481; in [10] (24 hrs), 1.0814; in [10] (48 hrs), 0.8953. Further, the “metabolic activity, OD at 492 nm divided” value stood at 1.1156 in assay [11] (24 hrs); 1.0700 in [11] (48 hrs); 0.9935 in assay [12] (24 hrs); 0.9148 in [12] (48 hrs); 0.8938 in assay [13] (24 hrs); 0.8704 in assay [13] (48 hrs). Also, the “metabolic activity, OD at 492 nm divided” value in [14] (24 hrs) stood at 0.9828; in assay [14] (48 hrs) it was 0.8769; in assay [15] (24 hrs), 0.9320; in assay [15] (48 hrs), 0.8510; in assay [16] (24 hrs) it was 1.2832; in assay [16] (48 hrs), 2.0488. In addition, the “prebiotic effect (metabolic activity)” value in assay [1] (48 hrs) is “exhibited prebiotic effects”.

As for `C[C@H](O)C(=O)O` [L-lactic acid], the “metabolic activity, OD at 492 nm divided” value in assay [2] (24 hrs) is given as 1.6747; in assay [2] (48 hrs), 1.8440; in assay [3] (24 hrs), 1.5404; in [3] (48 hrs), 1.7915; in [4] (24 hrs) it was 1.7850; in assay [4] (48 hrs), 2.2055. Besides, the “metabolic activity, OD at 492 nm divided” value in [5] (24 hrs) worked out at 1.4435; in assay [5] (48 hrs), 1.1474; in assay [6] (24 hrs) it was 0.8008; in assay [6] (48 hrs) it was 0.7884; in assay [7] (24 hrs) it was 0.7480; in assay [7] (48 hrs), 0.7325. Also, the “metabolic activity, OD at 492 nm divided” value in assay [8] (24 hrs) is 0.9628; in assay [8] (48 hrs), 0.9344; in [9] (24 hrs) it was 0.7156; in [9] (48 hrs), 0.6821; in [10] (24 hrs), 1.0230; in [10] (48 hrs), 0.9098. In addition, the “metabolic activity, OD at 492 nm divided” value in assay [11] (24 hrs) is given as 0.8885; in [11] (48 hrs), 0.8138; in [12] (24 hrs), 0.9183; in assay [12] (48 hrs), 0.8317; in [13] (24 hrs) it was 0.9076; in assay [13] (48 hrs), 0.8849. In addition, the “metabolic activity, OD at 492 nm divided” value in assay [14] (24 hrs) came to 0.8282; in [14] (48 hrs) it was 0.7747; in assay [15] (24 hrs) it was 0.8509; in [15] (48 hrs), 0.8314; in [16] (24 hrs) it was 3.4930; in [16] (48 hrs), 3.0003. For the same compound, the “prebiotic effect (metabolic activity)” value in assay [1] (24 hrs) is recorded as “exhibited prebiotic effects”. The “speed of metabolism by beneficial versus pathogenic bacteria” value in [1] (value of 2 reached at 24 hrs for the beneficial but not the pathogenic bacteria) was “metabolized faster by the beneficial bacteria than by the pathogenic bacteria”.

Regarding `COC(=O)CCC(=O)O` [Mono methyl succinate, mono methyl succinate], the “metabolic activity, OD at 492 nm divided” value in [2] (24 hrs) is recorded as 0.8880; in [2] (48 hrs), 0.8882; in assay [3] (24 hrs), 0.9911; in assay [3] (48 hrs) it was 1.0314; in assay [4] (24 hrs) it was 0.9321; in assay [4] (48 hrs), 1.0787. The “metabolic activity, OD at 492 nm divided” value is on record as 0.8328 in assay [5] (24 hrs); 0.9842 in assay [5] (48 hrs); 0.8349 in assay [6] (24 hrs); 0.7615 in assay [6] (48 hrs); 0.7502 in [7] (24 hrs); 0.6747 in [7] (48 hrs). For the same compound, the “metabolic activity, OD at 492 nm divided” value in assay [8] (24 hrs) is given as 1.0197; in [8] (48 hrs), 1.0603; in assay [9] (24 hrs) it was 0.8102; in assay [9] (48 hrs), 0.7556; in assay [10] (24 hrs), 1.0231; in [10] (48 hrs), 0.9293. Besides, the “metabolic activity, OD at 492 nm divided” value was determined as 0.9482 in assay [11] (24 hrs); 0.8864 in assay [11] (48 hrs); 0.9553 in assay [12] (24 hrs); 0.8641 in assay [12] (48 hrs); 0.8806 in [13] (24 hrs); 0.8453 in assay [13] (48 hrs). In addition, the “metabolic activity, OD at 492 nm divided” value in [14] (24 hrs) is 0.9731; in assay [14] (48 hrs), 0.9118; in assay [15] (24 hrs) it was 0.8922; in [15] (48 hrs), 0.8775; in [16] (24 hrs), 2.0008; in [16] (48 hrs), 2.0023.
